This assay has as its system Clostridium difficile. The experiment in a line: Outbreak of Clostridium difficile hemorrhagic diarrhea in newborn foals; probiotic formulation vs standard of care. The note with it: all animals dosed at birth with 6.6 mg/kg. It counts as in vivo. As to the method: Newborn foals born to mares at a large horse breeding barn were monitored during an outbreak of severe hemorrhagic diarrhea among the foals. […] Seventeen foals were born during the initial phase of the outbreak, of which fifteen animals became ill and required intervention according to the standard of care as described in the Merck Veterinary Manual. Standard of care involved metronidazole treatment given at a dose of 15-20 mg/kg, PO, tid-qid. and may also involve administration of large volumes of interveneous polyionic fluids, with supplemental electrolytes (potassium, magnesium, and calcium), plasma or synthetic colloids for low oncotic pressure, anti-inflammatoires such as flunixin meglumine, and broad-spectrum antibiotics if the horse is leukopenic and at risk of bacterial translocation across the compromised GI tract. Polymyxin B may aid in binding systemic endotoxin.
Of these seventeen foals, fifteen developed loose stool or diarrhea lasting 3-4 days, and 2 died as a result of the infection. After observing the outbreak, the next foals were provided a formulation of 3×10^12 CFU Bifidobacterium longum subsp. infantis EVBL001 and 5×10^9 CFU of Lactobacillus plantarum EVLP001 every 12 hours. The two foals that were provided with the formulation at 12 hours of age developed a mild diarrhea, but recovered within 8 hours compared to 3-4 days with standard of care. […]

Turning to `CO/N=C(\C(=O)N[C@@H]1C(=O)N2C(C(=O)O)=C(CSC(=O)c3ccco3)CS[C@H]12)c1csc(N)n1` [ceftiofur], the “effect on health outcome related to diarrhea” value is on record as “did not affect health outcome”.

The record behind these values is patent US20250276026A1, “TRANSIENT COMMENSAL MICROORGANISM FOR IMPROVING GUT HEALTH” (INFINANT HEALTH, INC, priority 2016, published 2025).
